From PubChem BioAssay AID489024 (Sanford-Burnham Center for Chemical Genomics, 2010)
pEC50: −log10 of the molar value. Active and inactive are the calls of the source.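 Rule for the calls: active = compounds whose mean EC50, the dose giving half the maximal reporter activation, is at or below a set limit; inactive = the rest.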

Target: CHO-CHOP luciferase reporter, UPR activation, luminescence
Test: activators of PERK-eIF2a-CHOP UPR arm, confirmation, CHO-CHOP cells, luciferase luminescence (AID 489024);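 note: compounds added alone to reporter cells with no tunicamycin stress co-treatment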

SMILES: COc1ccc(C2Nc3ccc4ccccc4c3-c3c2c(=O)oc2ccccc32)cc1 (stereo not given)
- EC50: > 80 µM (inactive)

SMILES: COc1ccc(/C=C2\CN(Cc3ccccc3)C/C(=C\c3ccc(OC)c(O)c3)C2=O)cc1O
- pEC50: 5.56

SMILES: COc1ccccc1N=c1oc2c(OC)cccc2cc1C(=O)NCc1ccco1
- EC50: > 80 µM (inactive)

SMILES: CCc1ccc(NC(=O)C(CC)Sc2nc3cc4c(cc3c(=O)n2Cc2ccco2)OCO4)cc1 (stereo not given)
- pEC50: 4.83

SMILES: CCOC(=O)c1cc(-c2ccc(/C=C3/C(=O)N(c4ccc(C(=O)O)cc4)N=C3C)o2)ccc1Cl
- pEC50: 4.97

SMILES: Oc1c(CN2CCc3ccccc3C2)cc(Cl)c2cccnc12
- pEC50: 4.92

SMILES: O=C(NCc1cccnc1)/C(=C\c1ccc(-c2ccc(Br)cc2)o1)S(=O)(=O)c1ccccc1
- pEC50: 5.18

SMILES: COc1cc2nc(NC(=O)c3ccc(Cl)cc3)sc(=O)c2cc1OC
- EC50: inactive

SMILES: CC1CCC/C=C/C2CC(O)CC2C(O)/C=C/C(=O)O1 (stereo not given)
- pEC50: 5.87

SMILES: Oc1c(C(c2ccccc2Cl)N2CCCC2)ccc2cccnc12 (stereo not given)
- pEC50: 5.24

SMILES: CN(/N=C\c1ccc(O)c(O)c1)c1nc(-c2ccccc2)cc(-c2ccccc2)n1
- pEC50: 5.88

SMILES: CCN(CC)S(=O)(=O)c1cc(NC(=O)Cn2ncc(Cl)c(Cl)c2=O)ccc1C
- pEC50: 5.10

SMILES: Cc1cccc(Nc2nc(-c3ccccn3)cs2)n1
- pEC50: 4.97

SMILES: O=[N+]([O-])/C=C\c1ccc(N2CCOCC2)cc1
- pEC50: 4.76

SMILES: COc1ccc(-c2cc(C(F)(F)F)nc(S(C)(=O)=O)n2)cc1OC
- pEC50: 5.03

SMILES: Cc1cnc(NC(=O)c2cc(S(=O)(=O)N(C)C)ccc2N2CCCC2)s1
- pEC50: 5.19

SMILES: CCc1cccc2c(C(=O)CCl)c[nH]c12
- pEC50: 4.80

SMILES: Oc1c(CN2CCN(c3ccc(F)cc3)CC2)cc(Cl)c2cccnc12
- pEC50: 4.85

SMILES: CCOc1cc(NC(=O)CCl)c(OCC)cc1NC(=O)CCl
- EC50: inactive

SMILES: O=C1Nc2ccccc2/C1=C\C(=O)c1ccccc1
- pEC50: 4.85

SMILES: O=C(/C(=C\c1ccccc1)c1nc2ccccc2[nH]1)c1ccc(Cl)cc1
- pEC50: 5.07

SMILES: Cc1cccc(CS(=O)(=O)c2ncc(Cl)c(C(=O)Nc3ccc(F)cc3)n2)c1
- pEC50: 5.04

SMILES: CCOC(=O)C1=C(CCl)NC(=O)NC1c1ccc2c(c1)OCO2 (stereo not given)
- EC50: > 80 µM (inactive)

SMILES: C/C(=N\Nc1ncnc2sc(C)c(C)c12)c1ccccn1
- pEC50: 5.25

SMILES: Cc1nc([N+](=O)[O-])c(Br)n1CC(=O)c1ccc(Br)cc1
- EC50: > 80 µM (inactive)

SMILES: COc1c(Cl)cc(Cl)cc1/C=C/C(=O)c1ccc(NC(=O)c2cccs2)cc1
- pEC50: 5.33

SMILES: CCn1cc(C(=O)NC(=S)Nc2sc3c(c2C(=O)OC)CCCCCC3)cn1
- EC50: inactive

SMILES: FC(F)(F)c1nnc(-c2ccccc2)nc1Sc1ccccc1
- pEC50: 5.09

SMILES: O=C(Nc1cccc(S(=O)(=O)N2CCCCC2)c1)c1ccc([N+](=O)[O-])o1
- pEC50: 5.29

SMILES: Cc1ccc(Sc2ccc(/C=C3/C(=O)NN(c4ccccc4)C3=O)o2)cc1
- EC50: inactive

SMILES: O=C(Nc1ccc(N2CCOCC2)cc1)c1ccc([N+](=O)[O-])o1
- pEC50: 5.33

SMILES: Cc1cccnc1Nc1nc(-c2ccc(O)c(O)c2)cs1
- pEC50: 5.46

SMILES: CCOC(=O)N1CCN(Cc2cc(Cl)c3cccnc3c2O)CC1
- EC50: inactive

SMILES: CC(C)CNC(=O)c1coc(=O)c(Br)c1
- pEC50: 4.92

SMILES: CCSC1(SCC)N=C(N)C2(C#N)C(c3ccc(F)cc3)C12C#N (stereo not given)
- pEC50: 4.96

SMILES: COc1cc(SC#N)ccc1N=Cc1c(C)[nH]n(-c2ccc(C)c(C)c2)c1=O
- pEC50: 4.89

SMILES: Cc1ccc(C)c(N=Cc2c(O)c3ccccc3oc2=O)c1
- pEC50: 5.20

SMILES: COc1ccc2c(c1)CCc1c(C(=O)Nc3cc(C)n(Cc4ccc(Cl)cc4)n3)noc1-2
- pEC50: 4.85

SMILES: O=c1nc(Nc2cccc(Cl)c2)oc2cc(Cl)oc(=O)c12
- pEC50: 4.94

SMILES: Cc1ccc(-c2nc(N/N=C/c3cccc([N+](=O)[O-])c3)c3ccccc3n2)cc1
- EC50: inactive

SMILES: Cc1ccc(Sc2nc(-c3ccccc3)nnc2C(F)(F)F)cc1
- EC50: > 80 µM (inactive)

SMILES: Cc1cc(SCC(=O)N/N=C/c2ccc(O)c(O)c2)nc2ccccc12
- pEC50: 4.74

SMILES: O=C(Nc1nc(-c2ccc(F)c(F)c2)cs1)Nc1ccc(F)cc1F
- EC50: > 80 µM (inactive)

SMILES: COc1cc(C(=O)Nc2nc(-c3ccc(Cl)cc3)c(C)s2)ccc1OCC(=O)Nc1ccc(F)cc1
- pEC50: 4.88

SMILES: Cc1ccc(C(C[N+](=O)[O-])n2nc(C)cc2C)cc1 (stereo not given)
- pEC50: 5.01

SMILES: CC(=O)Oc1ccc(OC(C)=O)c(SCCCCCN2CCOCC2)c1
- pEC50: 4.79

SMILES: Cc1cccc2sc(NC(=O)c3cc(S(=O)(=O)N(C)C)ccc3N3CCCC3)nc12
- EC50: inactive

SMILES: O=[N+]([O-])c1ccc(C=Nc2ccc(Cl)c([N+](=O)[O-])c2)s1
- EC50: > 80 µM (inactive)

SMILES: Nc1cccc(-c2nc3cc(S(=O)(=O)c4ccc5oc(-c6cccc(N)c6)nc5c4)ccc3o2)c1
- EC50: inactive

SMILES: COc1ccc2c(C(=O)CCl)c[nH]c2c1
- pEC50: 5.20

SMILES: COC(=O)c1ccc(C(=O)OC)c(NC(=O)CSc2cccc[n+]2[O-])c1
- EC50: inactive

SMILES: COc1ccccc1-c1cc(C(F)(F)F)nc(S(=O)(=O)CCCC(=O)NCc2ccc(F)cc2)n1
- pEC50: 5.12

SMILES: S=C1SCN(CC2CC2)CN1CC1CC1
- EC50: inactive

SMILES: CCc1cccc2sc(N3CCN(C(=O)c4ccc([N+](=O)[O-])o4)CC3)nc12
- pEC50: 4.98

SMILES: CCN1CSC(=S)N(Cc2ccccc2)C1
- pEC50: 5.07
